In patent publication US20240317735A1, “HYDROISOQUINOLINE OR HYDRONAPHTHYRIDINE COMPOUNDS FOR THE TREATMENT OF AUTOIMMUNE DISEASE” (Hoffmann-La Roche Inc., priority 2020, published 2024):

Biological target: T1, human TLR8 (Homo sapiens, UniProt Q9NR97)
T1 construct: host or cells: HEK293 (HEK-Blue hTLR8)
T1 sequence (Q9NR97 27-1041): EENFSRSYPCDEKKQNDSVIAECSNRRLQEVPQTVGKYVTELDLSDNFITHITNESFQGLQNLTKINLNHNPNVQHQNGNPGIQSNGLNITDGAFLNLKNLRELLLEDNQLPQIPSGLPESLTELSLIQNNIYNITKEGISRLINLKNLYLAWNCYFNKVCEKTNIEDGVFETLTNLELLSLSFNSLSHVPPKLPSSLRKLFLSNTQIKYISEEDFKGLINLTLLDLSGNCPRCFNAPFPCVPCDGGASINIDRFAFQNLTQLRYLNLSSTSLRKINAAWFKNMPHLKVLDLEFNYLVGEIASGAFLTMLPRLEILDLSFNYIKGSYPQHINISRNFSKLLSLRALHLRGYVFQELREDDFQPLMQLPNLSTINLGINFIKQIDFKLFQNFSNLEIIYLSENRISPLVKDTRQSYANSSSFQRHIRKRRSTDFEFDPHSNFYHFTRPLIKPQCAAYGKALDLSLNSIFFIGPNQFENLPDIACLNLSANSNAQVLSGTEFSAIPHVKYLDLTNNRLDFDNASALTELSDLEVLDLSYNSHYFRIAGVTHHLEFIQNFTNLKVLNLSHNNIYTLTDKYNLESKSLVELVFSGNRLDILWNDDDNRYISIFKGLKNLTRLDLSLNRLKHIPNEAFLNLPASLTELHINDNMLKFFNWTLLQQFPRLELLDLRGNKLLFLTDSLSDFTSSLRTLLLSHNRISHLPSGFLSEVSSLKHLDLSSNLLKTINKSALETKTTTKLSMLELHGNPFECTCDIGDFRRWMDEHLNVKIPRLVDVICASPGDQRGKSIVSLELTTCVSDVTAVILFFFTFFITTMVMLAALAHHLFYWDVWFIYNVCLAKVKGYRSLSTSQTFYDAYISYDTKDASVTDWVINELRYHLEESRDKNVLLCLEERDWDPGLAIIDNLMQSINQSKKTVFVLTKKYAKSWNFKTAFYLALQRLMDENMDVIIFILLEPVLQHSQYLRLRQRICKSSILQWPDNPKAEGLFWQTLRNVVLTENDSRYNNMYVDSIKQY
Assay: HEK293-Blue-hTLR-8 cells assay (SEAP reporter, R848 stimulation)
Type: cell-based
Details: HEK293-Blue-hTLR8 cells, R848, 20 hrs; read-out: HEK/hTLR8 IC50
Experimental: The following tests were carried out in order to determine the activity of the compounds of formula (I) and (Ia) in HEK293-Blue-hTLR-7/8/9 cells assay.
A stable HEK293-Blue-hTLR-8 cell line was purchased from InvivoGen (Cat. #: hkb-htlr8, San Diego, California, USA). These cells were originally designed for studying the stimulation of human TLR8 by monitoring the activation of NF-κB. A SEAP (secreted embryonic alkaline phosphatase) reporter gene was placed under the control of the IFN-β minimal promoter fused to five NF-κB and AP-1-binding sites. The SEAP was induced by activating NF-κB and AP-1 via stimulating HEK-Blue hTLR8 cells with TLR8 ligands. Therefore the reporter expression was declined by TLR8 antagonist under the stimulation of a ligand, such as R848, for incubation of 20 hrs. The cell culture supernatant SEAP reporter activity was determined using QUANTI-Blue™ kit (Cat. #: rep-qb1, Invivogen, San Diego, Ca, USA) at a wavelength of 640 nm, a detection medium that turns purple or blue in the presence of alkaline phosphatase.
HEK293-Blue-hTLR8 cells were incubated at a density of 250,000˜450,000 cells/mL in a volume of 170 μL in a 96-well plate in Dulbecco's Modified Eagle's medium (DMEM) containing 4.5 g/L glucose, […] penicillin, […], […] Normocin, 2 mM L-glutamine, 10% (v/v) heat-inactivated fetal bovine serum with addition of 20 μL test compound in a serial dilution in the presence of final DMSO at 1% and 10 μL of 60 uM R848 in above DMEM, perform incubation under 37° C. in a C02 incubator for 20 hrs. Then 20 μL of the supernatant from each well was incubated with 180 μL Quanti-blue substrate solution at 37° C. for 2 hrs and the absorbance was read at 620-655 nm using a spectrophotometer. The signaling pathway that TLR8 activation leads to downstream NF-κB activation has been widely accepted, and therefore similar reporter assay was modified for evaluating TLR8 antagonist.

| Structure (SMILES) | IC50 [nM] |
| --- | --- |
| Cc1cc(N2Cc3ccc(N4CCC5(CCNCC5)CC4)cc3C(C)C2)c2cnn(C)c2n1 (stereo not drawn) [Example 5, 3-[2-(1,6-dimethylpyrazolo[3,4-b]pyridin-4-yl)-4-methyl-3,4-dihydro-1H-isoquinolin-6-yl]-3,9-diazaspiro[5.5]undecane] | 10 |
| Cc1cc(N2Cc3ccc(OC[C@@H]4CNCCN4)cc3[C@@H](C)C2)c2cnn(C)c2n1 [Example 31, (4R)-2-(1,6-dimethylpyrazolo[3,4-b]pyridin-4-yl)-4-methyl-6-[[(2S)-piperazin-2-yl]methoxy]-3,4-dihydro-1H-isoquinoline] | 2 |
| C[C@H]1CN(c2ccnc3c2cnn3C)Cc2ccc(OCCN3CCNCC3)cc21 [Example 40, (4R)-4-methyl-2-(1-methylpyrazolo[3,4-b]pyridin-4-yl)-6-(2-piperazin-1-ylethoxy)-3,4-dihydro-1H-isoquinoline] | 7 |
| CO[C@H]1CN(c2cc3c(cn2)CN(c2cc(C)nc4c2cnn4C)C[C@@H]3C)CC[C@@H]1N [Example 73, (3S,4S)-3-methoxy-1-[(5R)-7-(1,6-dimethylpyrazolo[3,4-b]pyridin-4-yl)-5-methyl-6,8-dihydro-5H-2,7-naphthyridin-3-yl]piperidin-4-amine] | 2 |
| CCn1ncc2c(N3Cc4ccc(N5CCNCC5)cc4[C@@H](C)C3)ccnc21 [Example 22, (4R)-2-(1-ethylpyrazolo[3,4-b]pyridin-4-yl)-4-methyl-6-piperazin-1-yl-3,4-dihydro-1H-isoquinoline] | 16 |
| Cc1cc(N2Cc3cnc(N4CC5(CNCCO5)C4)cc3[C@@H](C)C2)c2cnn(C)c2n1 [Example 79, 2-[(5R)-7-(1,6-dimethylpyrazolo[3,4-b]pyridin-4-yl)-5-methyl-6,8-dihydro-5H-2,7-naphthyridin-3-yl]-5-oxa-2,8-diazaspiro[3.5]nonane] | 23 |
| C[C@H]1CN(c2ccnc3c2cnn3C)Cc2ccc(OC3CN(C4CCNCC4)C3)cc21 [Example 41, (4R)-4-methyl-2-(1-methylpyrazolo[3,4-b]pyridin-4-yl)-6-[1-(4-piperidyl)azetidin-3-yl]oxy-3,4-dihydro-1H-isoquinoline] | 8 |
| Cc1cc(N2Cc3ccc(N4CCNCC4)nc3[C@@H](C)C2)c2cnn(C)c2n1 [Example 66, (8S)-6-(1,6-dimethylpyrazolo[3,4-b]pyridin-4-yl)-8-methyl-2-piperazin-1-yl-7,8-dihydro-5H-1,6-naphthyridine] | 1 |
| Cc1cc(N2Cc3ccc(OC4CCNCC4)nc3[C@@H](C)C2)c2cnn(C)c2n1 [Example 64, (8S)-6-(1,6-dimethylpyrazolo[3,4-b]pyridin-4-yl)-8-methyl-2-(4-piperidyloxy)-7,8-dihydro-5H-1,6-naphthyridine] | 4 |
| C[C@H]1CN(c2ccnc3c2cnn3C)Cc2ccc(N3CCN(c4cc5c(cn4)CCNC5)CC3)cc21 [Example 9, 7-[4-[(4R)-4-methyl-2-(1-methylpyrazolo[3,4-b]pyridin-4-yl)-3,4-dihydro-1H-isoquinolin-6-yl]piperazin-1-yl]-1,2,3,4-tetrahydro-2,6-naphthyridine] | 11 |
| C[C@H]1CN(c2ccnc3c2cnn3C)Cc2ccc(N3CCN(Cc4cn(C)cn4)CC3)cc21 [Example 37, (4R)-4-methyl-6-[4-[(1-methylimidazol-4-yl)methyl]piperazin-1-yl]-2-(1-methylpyrazolo[3,4-b]pyridin-4-yl)-3,4-dihydro-1H-isoquinoline] | 5 |
| Cc1cc(N2Cc3ccc(N4CCOC5(CNC5)C4)nc3[C@@H](C)C2)c2cnn(C)c2n1 [Example 70, 8-[(8S)-6-(1,6-dimethylpyrazolo[3,4-b]pyridin-4-yl)-8-methyl-7,8-dihydro-5H-1,6-naphthyridin-2-yl]-5-oxa-2,8-diazaspiro[3.5]nonane] | 28 |
| C[C@H]1CN(c2ccnc3c2cnn3C)Cc2ccc(OC[C@@H]3CNCCN3C)cc21 [Example 44, (4R)-4-methyl-2-(1-methylpyrazolo[3,4-b]pyridin-4-yl)-6-[[(2S)-1-methylpiperazin-2-yl]methoxy]-3,4-dihydro-1H-isoquinoline] | 5 |
| C[C@H]1CN(c2ccnc3c2cnn3C)Cc2ccc(N3C[C@H]4CNCCN4C3=O)cc21 [Example 24, (8aR)-2-[(4R)-4-methyl-2-(1-methylpyrazolo[3,4-b]pyridin-4-yl)-3,4-dihydro-1H-isoquinolin-6-yl]-1,5,6,7,8,8a-hexahydroimidazo[1,5-a]pyrazin-3-one] | 2 |
| C[C@H]1CN(c2ccnc3c2cnn3C)Cc2ccc(N3CCC(N4CCNCC4)CC3)cc21 [Example 10, (4R)-4-methyl-2-(1-methylpyrazolo[3,4-b]pyridin-4-yl)-6-(4-piperazin-1-yl-1-piperidyl)-3,4-dihydro-1H-isoquinoline] | 1 |
| C[C@H]1CN(c2ccnc3c2cnn3C)Cc2ccc(N3CC4(CCNC4)CC3=O)cc21 (stereo partly drawn) [Example 52, 2-[(4R)-4-methyl-2-(1-methylpyrazolo[3,4-b]pyridin-4-yl)-3,4-dihydro-1H-isoquinolin-6-yl]-2,7-diazaspiro[4.4]nonan-3-one] | 3 |
| Cc1cc(N2Cc3cnc(N4CC[C@@H](N)[C@H](F)C4)cc3[C@@H](C)C2)c2cnn(C)c2n1 [Example 80, (3R,4R)-3-fluoro-1-[(5R)-7-(1,6-dimethylpyrazolo[3,4-b]pyridin-4-yl)-5-methyl-6,8-dihydro-5H-2,7-naphthyridin-3-yl]piperidin-4-amine] | 34 |
| C[C@H]1CN(c2ccnc3c2cnn3C)Cc2ccc(N3CC4(CCNCC4)CC3=O)cc21 [Example 16, 2-[(4R)-4-methyl-2-(1-methylpyrazolo[3,4-b]pyridin-4-yl)-3,4-dihydro-1H-isoquinolin-6-yl]-2,8-diazaspiro[4.5]decan-3-one] | 4 |
| Cc1cc(N2Cc3ccc(N4CCC(C)(N)CC4)nc3[C@@H](C)C2)c2cnn(C)c2n1 [Example 59, 4-methyl-1-[(8S)-6-(1,6-dimethylpyrazolo[3,4-b]pyridin-4-yl)-8-methyl-7,8-dihydro-5H-1,6-naphthyridin-2-yl]piperidin-4-amine] | 0.5 |
| C[C@H]1CN(c2ccnc3c2cnn3C)Cc2ccc(N3C[C@@]4(CCNC4)CC3=O)cc21 (single isomer, unassigned) [Example 53] | 6 |
| Cc1cc(N2Cc3ccc(N4CCNCC4)nc3[C@H](C)C2)c2cnn(C)c2n1 [Example 72, (8R)-6-(1,6-dimethylpyrazolo[3,4-b]pyridin-4-yl)-8-methyl-2-piperazin-1-yl-7,8-dihydro-5H-1,6-naphthyridine] | 2 |
| CC1CN(c2ccc3c(c2)[C@@H](C)CN(c2ccnc4c2cnn4C)C3)CCN1 (stereo partly drawn) [Example 15, (4R)-4-methyl-6-(3-methylpiperazin-1-yl)-2-(1-methylpyrazolo[3,4-b]pyridin-4-yl)-3,4-dihydro-1H-isoquinoline] | 3 |
| Cc1cc(N2Cc3cnc(N4CCNCC4)cc3[C@@H](C)C2)c2cnn(C)c2n1 [Example 74, (4R)-2-(1,6-dimethylpyrazolo[3,4-b]pyridin-4-yl)-4-methyl-6-piperazin-1-yl-3,4-dihydro-1H-2,7-naphthyridine] | 2 |
| C[C@H]1CN(c2ccnc3c2cnn3C)Cc2ccc(N3C[C@H]4CCNC[C@H]4C3=O)cc21 (single isomer, unassigned) [Example 56] | 7 |
